According to US4791139A, “Diphenyl ether derivatives and their use as insecticides” (Imperial Chemical Industries PLC, priority 1986, dated 1988):

Experiments:
Assay type in all cases: in vivo
[1] = system: Diabrotica balteata (rootworm larvae); test: Residual test, rootworm larvae (DB), Filter paper/maize seed; details: 72 h, 3 days, read-out: DB grading of mortality
How it was run: (§1)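 Each pest was kept on its food plant or foodstuff and exposed, directly or via the medium, to 100 to 500 ppm Product in water containing 0.1% by weight wetting agent. Kill was recorded over one to seven days.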

[2] = system: Blattella germanica (cockroach nymphs); test: Residual test, cockroach nymphs (BG), Plastic pot; details: 72 h, 3 days, read-out: BG grading of mortality
How it was run: as §1

[3] = system: Myzus persicae (aphids); test: Contact test, aphids (MP), Chinese Cabbage leaf; details: 72 h, 3 days, read-out: MP grading of mortality
How it was run: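 Aphids on a host plant and/or the plant itself were treated with 100–500 ppm of product, applied from acetone diluted in water containing 0.1% SYNPERONIC NX wetting agent. Mortality was scored usually one to seven days after treatment.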

[4] = system: Musca domestica (houseflies - adults); test: Knockdown test, houseflies - adults (MD/KD), Cotton wool/sugar; details: 4 hours, read-out: MD/KD grading of knockdown
How it was run: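 Product was dissolved in acetone and diluted with water containing 0.1% wetting agent to 100–500 ppm. The flies and/or their food medium were treated with the preparation. Mortality was scored 1–7 days after treatment, with an additional knockdown assessment for houseflies.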

[5] = system: Meloidogyne incognita (Tomato root knot eelworm - larvae); test: Residual test, Tomato root knot eelworm - larvae (MI), Semi in-vitro; details: 168 h, application rate is half that recorded, 7 days, read-out: MI grading of mortality; for mortality at 125 µg/mL: rate 250 ppm
[6] = system: Musca domestica (houseflies - adults); test: Contact test, houseflies - adults (MD), Cotton wool/sugar; details: 24 h, 1 day, read-out: MD grading of mortality
How it was run: as §1

[7] = system: Nilaparvata lugens (brown plant hopper - nymphs); test: Contact test, brown plant hopper - nymphs (NL), Rice plant; details: 72 h, 3 days, read-out: NL grading of mortality
How it was run: as §1

[8] = system: Heliothis virescens (tobacco budworm - larvae); test: Residual test, tobacco budworm - larvae (HV), Cotton leaf; details: 72 h, read-out: HV grading of mortality
How it was run: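 Products applied as acetone solutions diluted in water with 0.1% wetting agent, at 100–500 ppm; pests on host plant or food, with pests and/or medium treated. Mortality or knockdown scored 1–7 days after treatment and graded A (80–100%), B (50–79%) or C (<50%).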

[9] = system: Chilo partellus (Maize stemborer - larvae); test: Residual test, Maize stemborer - larvae (CP), Oilseed rape; details: 72 h, 3 days, read-out: CP grading of mortality
Method: The activity of the Product was determined using a variety of insect pests. The Product was used in the form of liquid preparations containing from 100 to 500 parts per million (ppm) by weight of the Product. The preparations were made by dissolving the Product in acetone and diluting the solutions with water containing 0.1% by weight of a wetting agent sold under the trade name "SYNPERONIC" NX until the liquid preparations contained the required concentration of the Product. "SYNPERONIC" is a Registered Trade Mark.
The test procedure adopted with regard to each pest was basically the same and comprised supporting a number of the pests on a medium which was usually a host plant or a foodstuff on which the pests feed, and treating either or both the pests and the medium with the preparations. The mortality of the pests was then assessed at periods usually varying from one to seven days after the treatment.
The results of the tests are given in Table III for each of the Products, at the rate in parts per million given in the second column as a grading of mortality designated as A, B or C wherein A indicates 80-100% mortality or knockdown (70-100% for Meloidogyne incognita), B indicates 50-79% mortality knockdown or knockdown (50-69% for Meloidogyne incognita) and C indicates less than 50% mortality or knockdown.
In Table III the pest organism used is designated by a letter code and the pests species, the support medium or food, and the type and duration of test is given in Table II.
(Maize stemborer - larvae)

[10] = system: Tetranychus urticae (spider mites - ova); test: Contact test, spider mites - ova (TUe), French bean leaf; details: 144 h, 6 days, read-out: TUE grading of mortality
How it was run: as §1

[11] = system: Tetranychus urticae (spider mites - adult); test: Contact test, spider mites - adult (TUa), French bean leaf; details: 72 h, 3 days, read-out: TUA grading of mortality
How it was run: as §1

SMILES	mortality at 250 ppm [1] [%]	mortality at 250 ppm [2] [%]	mortality at 250 ppm [3] [%]	pest or weed control at 250 ppm [4] [%]	mortality at 125 µg/mL [5] [%]	mortality at 250 ppm [6] [%]	mortality at 250 ppm [7] [%]	mortality at 250 ppm [8] [%]	mortality at 250 ppm [9] [%]	mortality at 250 ppm [10] [%]	mortality at 250 ppm [11] [%]	other results
CCOc1ccc(/C(=C\C=C/c2ccc(F)c(Oc3ccccc3)c2)C(F)(F)F)cc1 [Compound 37, 1,1,1-trifluoro-2-(4-ethoxyphenyl)-5-(4-fluoro-3-phenoxyphenyl)penta-2,4-diene]	< 50	50 to 79	< 50	< 50	< 50	< 50	< 50	< 50	< 50	< 50	< 50	–
CCOc1ccc(/C(=C\CCc2cccc(Oc3ccccc3)c2)C(F)(F)F)cc1 [Compound 3, E-1,1,1-trifluoro-2-(4-ethoxyphenyl)-5-(3-phenoxyphenyl)pent-2-ene]	–	–	–	–	–	–	–	–	–	–	–	mortality at 500 ppm ([1]; 500 ppm): 80 to 100%; mortality at 500 ppm ([2]; 500 ppm): 80 to 100%; mortality at 500 ppm ([3]; 500 ppm): 80 to 100%; pest or weed control at 500 ppm ([4]; 500 ppm): 80 to 100%; mortality at 250 µg/mL ([5]; rate column 500 ppm): < 50%; mortality at 500 ppm ([6]; 500 ppm): 80 to 100%; mortality at 500 ppm ([7]; 500 ppm): < 50%; mortality at 500 ppm [8]: 80 to 100%; mortality at 500 ppm ([9]; 500 ppm): 80 to 100%; mortality at 500 ppm ([10]; 500 ppm): < 50%; mortality at 500 ppm ([11]; 500 ppm): 50 to 79%
CCOc1ccc(/C(=C\C=C\c2ccc(F)c(Oc3ccccc3)c2)C(F)(F)F)cc1 [Compound 36, 1,1,1-trifluoro-2-(4-ethoxyphenyl)-5-(4-fluoro-3-phenoxyphenyl)penta-2,4-diene]	80 to 100	80 to 100	80 to 100	80 to 100	50 to 69	80 to 100	80 to 100	80 to 100	80 to 100	< 50	< 50	–
CCOc1ccc(C(CC=Cc2cccc(Oc3ccccc3)c2)C(F)(F)F)cc1 (centres unmarked) [Compound 31, 1,1,1-trifluoro-2-(4-ethoxyphenyl)-5-(3-phenoxyphenyl)pent-4-ene]	80 to 100	80 to 100	80 to 100	80 to 100	< 50	80 to 100	80 to 100	80 to 100	80 to 100	< 50	< 50	–
CC(C)(C)c1ccc(C(=CCCc2cccc(Oc3ccccc3)c2)C(F)(F)F)cc1 [Compound 6, 2-[4-(2-methylprop-2-yl)phenyl]-5-(3-phenoxyphenyl)-1,1,1-trifluoropent-2-ene]	< 50	80 to 100	< 50	< 50	70 to 100	< 50	< 50	< 50	80 to 100	< 50	< 50	–
CCOc1ccc(C(CCCc2cccc(Oc3ccccc3)c2)C(F)(F)C(F)(F)F)cc1 (racemic) [Compound 11, 1,1,1,2,2-Pentafluoro-3-(4-ethoxyphenyl)-6-(3-phenoxyphenyl)hexane]	< 50	< 50	< 50	80 to 100	< 50	< 50	< 50	< 50	< 50	< 50	< 50	–
CC(C)(C)c1ccc(C(CCCc2cccc(Oc3ccccc3)c2)C(F)(F)F)cc1 (racemic) [Compound 8, 1,1,1-Trifluoro-2-[4-(2-methylprop-2-yl)phenyl]-5-(3-phenoxyphenyl)pentane]	80 to 100	80 to 100	< 50	< 50	70 to 100	< 50	< 50	80 to 100	80 to 100	< 50	< 50	–
